Measurements published in ChEMBL document CHEMBL3880437, “Modulators of the prostacyclin (PGI2) receptor useful for the treatment of disorders related thereto” (2014).
Activity calls are given as the source filed them. No cut-off for these calls is given here.

Columns and labels:
[1] = tested on: Rattus norvegicus; test: Inhibition of right ventricle hypertrophic response to monocrotaline-induced pulmonary arterial hypertension assessed as ratio of right ventricular weight to left ventricle plus septum in Wistar rat at 30 mg/kg administered through oral gavage twice daily for 21 consecutive days starting 24 hrs after monocrotaline challenge; assay type: functional, organism-based
[2] = tested on: Platelet; test: Inhibition of ADP-induced platelet aggregation in human platelet rich plasma pre-incubated for 1 min before ADP addition and measured 3 mins post ADP addition by aggregometry; assay type: functional
[3] = target: Prostacyclin receptor (Homo sapiens, UniProt P43119); test: Agonist activity at human recombinant prostacyclin receptor expressed in CHO-K1 cells assessed as induction of cAMP accumulation incubated for 1 hr by HTRF assay; assay type: functional, cell-based
Chain of Prostacyclin receptor (P43119 whole entry): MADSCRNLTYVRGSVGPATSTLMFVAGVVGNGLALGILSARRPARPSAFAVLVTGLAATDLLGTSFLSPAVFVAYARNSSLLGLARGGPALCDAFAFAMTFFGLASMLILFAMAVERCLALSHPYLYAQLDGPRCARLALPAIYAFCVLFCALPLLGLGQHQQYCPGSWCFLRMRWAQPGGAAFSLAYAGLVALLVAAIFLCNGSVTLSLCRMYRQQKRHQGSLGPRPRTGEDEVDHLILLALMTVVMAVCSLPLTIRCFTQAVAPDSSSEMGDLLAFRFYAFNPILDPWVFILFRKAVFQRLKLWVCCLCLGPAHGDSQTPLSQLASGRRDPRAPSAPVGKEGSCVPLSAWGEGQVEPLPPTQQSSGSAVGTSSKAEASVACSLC

[4] = Stability of the compound in Cremophor RH40 assessed as observable compound degradation after 4 weeks in glass vial at 50 degC; assay type: physicochemical; details: 672 h
[5] = Stability of the compound in Imwitor 742 assessed as observable compound degradation after 4 weeks in glass vial at 50 degC; assay type: physicochemical; details: 672 h
[6] = Stability of the compound in TPGS 1000 assessed as observable compound degradation after 4 weeks in glass vial at 50 degC; assay type: physicochemical; details: 672 h
[7] = Stability of the compound in Cremophor RH40 assessed as observable API assay loss after 4 weeks in glass vial at 50 degC; assay type: physicochemical; details: 672 h
[8] = Stability of the compound in Imwitor 742 assessed as observable API assay loss after 4 weeks in glass vial at 50 degC; assay type: physicochemical; details: 672 h
[9] = Stability of the compound in TPGS 1000 assessed as observable API assay loss after 4 weeks in glass vial at 50 degC; assay type: physicochemical; details: 672 h
[10] = Solubility of the compound in corn oil; assay type: physicochemical
[11] = Solubility of the compound in Safflower oil; assay type: physicochemical
[12] = Solubility of the compound in Labrasol; assay type: physicochemical
[13] = Solubility of the compound in Cremophor RH40; assay type: physicochemical
[14] = Solubility of the compound in Imwitor 742; assay type: physicochemical
[15] = Solubility of the compound in TPGS 1000; assay type: physicochemical
[16] = Solubility of the compound in Gelucire 44/14; assay type: physicochemical
[17] = Solubility of the compound in PEG400; assay type: physicochemical
[18] = Solubility of the compound in Lauroglycol 90; assay type: physicochemical
[19] = Solubility of the compound in PEG6000; assay type: physicochemical
[20] = Solubility of the compound in Gelucire 50/13; assay type: physicochemical
[21] = Terminal phase half life in Sprague-Dawley rat at 1.25 mg/kg, po after 0.1 to 21 hrs by LC/MS/MS method; assay type: ADME, organism-based; details: in vivo, read-out: beta t1/2 (converted)
[22] = Drug level in bile-duct cannulated male Sprague-Dawley rat treated with sodium 2-(((1r,4r)-4-(((4- Chlorophenyl)(phenyl)carbamoyloxy)methyl)cyclo- hexyl)methoxy)acetate assessed as compound formation at 2 mg/kg, iv; assay type: ADME, organism-based; details: in vivo
[23] = Drug level in bile-duct cannulated male Sprague-Dawley rat treated with sodium 2-(((1r,4r)-4-(((4- Chlorophenyl)(phenyl)carbamoyloxy)methyl)cyclo- hexyl)methoxy)acetate assessed as compound formation in bile at 2 mg/kg, iv; assay type: ADME, organism-based; details: in vivo
[24] = Drug level in bile-duct cannulated male Sprague-Dawley rat treated with sodium 2-(((1r,4r)-4-(((4- Chlorophenyl)(phenyl)carbamoyloxy)methyl)cyclo-hexyl)methoxy)acetate assessed as compound formation in urine at 2 mg/kg, iv; assay type: ADME, organism-based; details: in vivo
[25] = tested on: Rattus norvegicus; test: Cmax in Sprague-Dawley rat assessed as 2-(((1r,4r)-4-(((4-Chlorophenyl)(phenyl)carbamoy-loxy)methyl)cyclohexyl)methoxy)acetic acid level at 1.25 mg/kg, po after 2.67 hrs by LC/MS/MS method; assay type: ADME, organism-based; design: dose 1.25 mg/kg, route oral; details: in vivo
[26] = Terminal phase half life in Sprague-Dawley rat assessed as 2-(((1r,4r)-4-(((4-Chlorophenyl)(phenyl)carbamoy-loxy)methyl)cyclohexyl)methoxy)acetic acid level at 1.25 mg/kg, po after 0.1 to 21 hrs by LC/MS/MS method; assay type: ADME, organism-based; details: in vivo
[27] = tested on: Rattus norvegicus; test: Tmax in Sprague-Dawley rat assessed as 2-(((1r,4r)-4-(((4-Chlorophenyl)(phenyl)carbamoy-loxy)methyl)cyclohexyl)methoxy)acetic acid level at 1.25 mg/kg, po by LC/MS/MS method; assay type: ADME, organism-based; details: in vivo
[28] = tested on: Rattus norvegicus; test: AUC(last) in Sprague-Dawley rat assessed as 2-(((1r,4r)-4-(((4-Chlorophenyl)(phenyl)carbamoy-loxy)methyl)cyclohexyl)methoxy)acetic acid level at 1.25 mg/kg, po after 0.1 to 21 hrs by LC/MS/MS method; assay type: ADME, organism-based; design: dose 1.25 mg/kg, route oral, time 0 - last; details: in vivo
[29] = tested on: Rattus norvegicus; test: Tmax in Sprague-Dawley rat assessed as 2-(((1r,4r)-4-(((4-Chlorophenyl)(phenyl)carbamoy-loxy)methyl)cyclohexyl)methoxy)acetic acid level at 10 mg/kg, po by LC/MS/MS method; assay type: ADME, organism-based; details: in vivo

## O=C(O)COC[C@H]1CC[C@H](COC(=O)N(c2ccccc2)c2ccc(Cl)cc2)CC1 [listing 1 of 2 here]
[1]
  Activity: Active

## O=C(O)COC[C@H]1CC[C@H](COC(=O)N(c2ccccc2)c2cccc(F)c2)CC1
[1]
  Activity: Active
[2]
  IC50: 10.5 to 1590 nM

## Cc1cccc(N(C(=O)OC[C@H]2CC[C@H](COCC(=O)O)CC2)c2cccc(F)c2)c1
[3]
  EC50: 2.7 to 2650 nM
[2]
  IC50: 10.5 to 1590 nM

## CN(C(=O)OC[C@H]1CC[C@H](COCC(=O)O)CC1)C(c1ccccc1)c1ccccc1
[3]
  EC50: 2.7 to 2650 nM
[2]
  IC50: 10.5 to 1590 nM

## COc1ccc(N(C(=O)NC[C@H]2CC[C@H](COCC(=O)O)CC2)c2ccccc2)cc1
[3]
  EC50: 2.7 to 2650 nM
[2]
  IC50: 10.5 to 1590 nM

## O=C(O)COC[C@H]1CC[C@H](COC(=O)N(c2ccccc2)c2ccc(C(F)(F)F)cn2)CC1
[3]
  EC50: 2.7 to 2650 nM
[2]
  IC50: 10.5 to 1590 nM

## O=C(O)COC[C@H]1CC[C@H](COC(=O)N(c2cccc(F)c2)c2cccc(F)c2)CC1
[3]
  EC50: 2.7 to 2650 nM
[2]
  IC50: 10.5 to 1590 nM

## Cc1ccc(N(C(=O)OC[C@H]2CC[C@H](COCC(=O)O)CC2)c2ccccc2)cc1F
[3]
  EC50: 2.7 to 2650 nM
[2]
  IC50: 10.5 to 1590 nM

## O=C(O)COC[C@H]1CC[C@H](COC(=O)N(c2ccccc2)c2ccc(Cl)cn2)CC1
[3]
  EC50: 2.7 to 2650 nM
[2]
  IC50: 10.5 to 1590 nM

## O=C(O)COC[C@H]1CC[C@H](COC(=O)N(c2ccccc2)c2cncc(F)c2)CC1
[3]
  EC50: 2.7 to 2650 nM
[2]
  IC50: 10.5 to 1590 nM

## O=C(O)COC[C@H]1CC[C@H](CNC(=O)N(c2ccccc2)c2ccc(Cl)cc2)CC1
[3]
  EC50: 2.7 to 2650 nM
[2]
  IC50: 10.5 to 1590 nM

## O=C(O)COC[C@H]1CC[C@H](COC(=O)N(c2ccccc2)c2ccnc(F)c2)CC1
[3]
  EC50: 2.7 to 2650 nM
[2]
  IC50: 10.5 to 1590 nM

## Cc1ccc(N(C(=O)OC[C@H]2CC[C@H](COCC(=O)O)CC2)c2cccc(F)c2)cc1
[3]
  EC50: 2.7 to 2650 nM
[2]
  IC50: 10.5 to 1590 nM

## O=C(O)COC[C@H]1CC[C@H](COC(=O)N(c2ccccc2)c2ccc(Cl)cc2)CC1 [listing 2 of 2 here]
[2]
  IC50: 10.5 to 1590 nM
[4]
  Stability: Stable
[5]
  Stability: Stable
[6]
  Stability: Stable
[7]
  Stability: Stable
[8]
  Stability: Stable
[9]
  Stability: Stable

## O=C(O)COC[C@H]1CC[C@@H](COC(=O)N(c2ccccc2)c2ccccc2)CC1
[3]
  EC50: 2.7 to 2650 nM
[2]
  IC50: 10.5 to 1590 nM

## COc1cccc(N(C(=O)NC[C@H]2CC[C@H](COCC(=O)O)CC2)c2ccccc2)c1
[3]
  EC50: 2.7 to 2650 nM
[2]
  IC50: 10.5 to 1590 nM

## O=C(O)COC[C@H]1CC[C@H](COC(=O)N(c2ccccc2)c2ccccc2)CC1
[3]
  EC50: 2.7 to 2650 nM
[2]
  IC50: 10.5 to 1590 nM

## O=C(O)COC[C@H]1CC[C@H](CNC(=O)N(c2ccccc2)c2ccccc2F)CC1
[3]
  EC50: 2.7 to 2650 nM
[2]
  IC50: 10.5 to 1590 nM

## O=C(O)COC[C@H]1CC[C@H](COC(=O)N(c2ccc(F)cc2)c2cccc(F)c2)CC1
[3]
  EC50: 2.7 to 2650 nM
[2]
  IC50: 10.5 to 1590 nM

## O=C(O)COC[C@H]1CC[C@H](CNC(=O)N(c2ccccc2)c2cccc(F)c2)CC1
[3]
  EC50: 2.7 to 2650 nM
[2]
  IC50: 10.5 to 1590 nM

## O=C(O)COC[C@H]1CC[C@H](COC(=O)N(c2ccccc2)c2cccc(F)c2F)CC1
[3]
  EC50: 2.7 to 2650 nM
[2]
  IC50: 10.5 to 1590 nM

## CCOc1ccc(N(C(=O)OC[C@H]2CC[C@H](COCC(=O)O)CC2)c2ccc(F)cc2)cc1
[3]
  EC50: 2.7 to 2650 nM
[2]
  IC50: 10.5 to 1590 nM

## O=C(O)COC[C@H]1CC[C@H](COC(=O)N(c2ccc(F)cc2)c2ccc(OC(F)(F)F)cc2)CC1
[3]
  EC50: 2.7 to 2650 nM
[2]
  IC50: 10.5 to 1590 nM

## Cc1cccc(N(C(=O)OC[C@H]2CC[C@H](COCC(=O)O)CC2)c2ccccc2)c1
[3]
  EC50: 2.7 to 2650 nM
[2]
  IC50: 10.5 to 1590 nM

## O=C([O-])COC[C@H]1CC[C@H](COC(=O)N(c2ccccc2)c2ccc(Cl)cc2)CC1.[Na+]
[10]
  solubility: < 100 µg/mL
[11]
  solubility: < 100 µg/mL
[12]
  solubility: 12980 µg/mL
[13]
  solubility: 7820 µg/mL
[14]
  solubility: 16200 µg/mL
[15]
  solubility: 2550 µg/mL
[16]
  solubility: 1610 µg/mL
[17]
  solubility: 4850 µg/mL
[18]
  solubility: 260 µg/mL
[19]
  solubility: < 10000 µg/mL
[20]
  solubility: < 10000 µg/mL

## O=C(O)COC[C@H]1CC[C@H](COC(=O)N(c2cccc(F)c2)c2cccc(Cl)c2)CC1
[3]
  EC50: 2.7 to 2650 nM
[2]
  IC50: 10.5 to 1590 nM

## O=C(O)COC[C@H]1CC[C@H](CNC(=O)N(c2ccccc2)c2cccc(C(F)(F)F)c2)CC1
[3]
  EC50: 2.7 to 2650 nM
[2]
  IC50: 10.5 to 1590 nM

## COc1ccccc1N(C(=O)OC[C@H]1CC[C@@H](COCC(=O)O)CC1)c1ccccc1
[3]
  EC50: 2.7 to 2650 nM
[2]
  IC50: 10.5 to 1590 nM

## O=C(COC[C@H]1CC[C@H](COC(=O)N(c2ccccc2)c2ccc(Cl)cc2)CC1)NCCS(=O)(=O)O
[21]
  half-life: 3.51 h
[22]
  Drug metabolism: Metabolite_Detected
[2]
  IC50: 10.5 to 1590 nM
[23]
  Drug metabolism: Metabolite_Detected
[24]
  Drug metabolism: Metabolite_Notdetected
[25]
  Cmax: 214 ng/mL
[26]
  beta t1/2: 3.24 h
[27]
  Tmax: 2.67 h
[28]
  AUClast: 935 ng·h/mL
[29]
  Tmax: 1.5 h

## CCCN(C(=O)OC[C@H]1CC[C@H](COCC(=O)O)CC1)C(c1ccccc1)c1ccccc1
[3]
  EC50: 2.7 to 2650 nM
[2]
  IC50: 10.5 to 1590 nM

## O=C(O)COC[C@H]1CC[C@H](COC(=O)N(c2ccc(F)cc2)c2cccnc2)CC1
[3]
  EC50: 2.7 to 2650 nM
[2]
  IC50: 10.5 to 1590 nM

## CN(C[C@H]1CC[C@H](COCC(=O)O)CC1)C(=O)N(C)C(c1ccccc1)c1ccccc1
[3]
  EC50: 2.7 to 2650 nM
[2]
  IC50: 10.5 to 1590 nM

## O=C(O)COC[C@H]1CC[C@H](COC(=O)N(c2ccccc2)c2ccccn2)CC1
[3]
  EC50: 2.7 to 2650 nM
[2]
  IC50: 10.5 to 1590 nM

## Cc1cccc(N(C(=O)NC[C@H]2CC[C@H](COCC(=O)O)CC2)c2cccc(C)c2)c1
[3]
  EC50: 2.7 to 2650 nM
[2]
  IC50: 10.5 to 1590 nM
